What was measured:
plasma = experiment: Plasma coagulation time, Activated Partial Thromboplastin Time (aPTT); format: biochemical; conditions: plasma treated 3 minutes
Experimental: In order to separate plasma, blood was collected with 3.2% sodium citrate as an anticoagulant. Whole blood was centrifuged at 2000 g for 20 minutes to obtain plasma. After treating the plasma with the test substances for 3 minutes, plasma coagulation time was measured. For plasma coagulation time, Activated Partial Thromboplastin Time (aPTT) and Prothrombin Time (PT) were measured using BBL® Fibrometer (Becton Dickinson, Cockeysville, Md.). For measurement of aPTT, the plasma was treated with aPTT reagents in fibrometer cup and reacted at 37° C. for 3 min. After the reaction, CaCl2 was added and blood coagulation time was measured immediately. For the measurement of PT, PT reagent was added to warmed plasma, and blood coagulation time was measured immediately. DTI, known to prolong plasma coagulation time, was used as a control.

[1] = test system: ADP-induced platelet aggregation, Human PRP; experiment: ADP-induced platelet aggregation in human PRP (lumi-aggregometer); format: cell-based; conditions: ADP 15-20 μM
Experimental: To investigate whether the candidate substance has inhibition selectivity for shear-stress-induced platelet aggregation, which is by a physical stimulus, […] experiment was conducted by activating platelets with physiological agonists—i.e., thrombin, collagen and ADP—to study the inhibitory effect of the candidate substance.
Human PRP (598.8 μl) was treated with 1.2 μl of the candidate substance per concentration (25, 100, 250 μM) and reacted at 37° C. for 3 minutes using a thermomixer. Then, PRP (495 μl) was put in the aggregometer cuvette and preincubated for 1 minute, followed by treatment with platelet aggregation-inducing reagent, thrombin (0.6-0.8 U/ml), collagen (2-5 μg/ml), or ADP (adenosine diphosphate, 15-20 μM) at the minimum concentration causing maximum aggregation. The degree of aggregation of the platelets was measured by a turbidity change using a lumi-aggregometer (Chrono-Log Co., USA). The turbidity of the PRP was considered as 0%, and the turbidity of the PPP was considered as 100%. During the measurement, the reaction mixture was continuously stirred at 1,000 rpm with a silicone-coated magnetic stir bar.

human platelets = experiment: Cytotoxicity in human platelets (LDH leakage); format: cell-based; conditions: 3 min
Experimental: 5-2. Evaluation of Cytotoxicity of Candidate Substances Using Human Platelets
Leakage of lactate dehydrogenase (LDH) from the platelets was measured by a spectro-photometry method. 1.2 μl of the test substance was added to 598.8 μl of PRP, and the mixture was reacted at 37° C. for 3 minutes using a thermomixer. After the reaction, 100 μl of the sample was centrifuged at 12,000 g for 2 minutes, and 80 μl of the supernatant was taken and refrigerated until evaluation. The evaluation was performed within 24 hours. […] 25 μl of the sample was added to 1 ml of a pre-warmed Tris-EDTA NADH solution (56 mM Tris(hydroxymethyl) aminomethane, 5.6 mM EDTA, 0.17 mM β-NADH pH 7.4) and reacted for 5 minutes at 37° C. Then, 100 μl of a 14 mM pyruvate solution previously heated at 37° C. was added to the reaction mixture, and absorbance was immediately measured at a wavelength of 339 nm for 1 minute using a spectrophotometer (UV-Vis spectrophotometer, UV-2201, Shidamadzu, Japan). The rate of decrease in absorbance means the rate of oxidation of NADH, indicating the activity of LDH liberated from platelets. Total activity of LDH was measured by inducing lysis of platelets with 0.3% Triton X-100. The basal level of LDH (Control) was measured in plasma. The activity of each sample was measured as a percentage of the total activity of LDH.

ICR mice = experiment: 2-week repeat-dose toxicity study; format: in vivo; conditions: oral 100, 300 and 1000 mg/kg once a day for 2 weeks
Experimental: (§1) After oral administration of vehicle (0.5% methylcellulose) or the candidate substances at low dose, medium dose, and high dose (100, 300, 1000 mg/kg) to ICR mice (female, male, 18 to 26 g) once a day for 2 weeks, the NOAEL values of the candidate substances were calculated by observing and recording mortality, body weight change, clinical observations, food and drinking water consumption, gross necropsy findings, histopathological evaluation of abnormal organ, and organ weights.

[2] = 2-week repeat-dose toxicity study; format: in vivo; conditions: both sexes, mouse, in vivo; ICR mice, oral 100, 300, 1000 mg/kg once a day for 2 weeks; read-out: NOAEL (No observed adverse effect level)
Experimental: as §1

ICR mouse = experiment: Bleeding side effect by repeated administration (tail bleeding time); conditions: 50 mg/kg oral once daily for 7 days
Experimental: One hour after the last administration, the mice were anesthetized by breathing, and the 4 mm portion from the tail tip of the mice was cut. Then, the tail tip of the mice was immersed in a transparent 15-ml tube containing the pre-prepared 37° C. saline. The time when blood was not spread any more and the bleeding stopped was measured.

Structure (SMILES)	plasma coagulation time - aPTT, Time (plasma; 25 μM) [s]	plasma coagulation time - aPTT, Time (plasma; 100 μM) [s]	plasma coagulation time - aPTT, Time (plasma; 250 μM) [s]	Degree of platelet aggregation (%, Mean ± SEM) ([1]; compound 25 μM) [%]	Degree of platelet aggregation (%, Mean ± SEM) ([1]; compound 100 μM) [%]	Degree of platelet aggregation (%, Mean ± SEM) ([1]; compound 250 μM) [%]	LDH leakage (%, Mean ± SEM) (human platelets; 25 μM) [%]	LDH leakage (%, Mean ± SEM) (human platelets; 100 μM) [%]	LDH leakage (%, Mean ± SEM) (human platelets; 250 μM) [%]	findings in body weight change, clinical observations, food and drinking water consumption, gross necropsy findings, and organ weights (ICR mice)	mortality (ICR mice)	NOAEL at 2 weeks [2] [mg/kg]	Bleeding time (ICR mouse) [min]
O=C(c1ccc(O)c(O)c1)N1CCc2sccc2C1 [Example 1, (6,7-Dihydrothieno[3,2-c]pyridin-5(4H)-yl)(3,4-dihydroxyphenyl)methanone]	23.8 ± 1.9	24.8 ± 2.0	26.7 ± 0.8	77.5 ± 3.5	69.0 ± 6.0	78.0 ± 7.0	2.7 ± 0.5	2.4 ± 0.2	2.7 ± 0.5				
COc1cc(C(=O)N2CCc3sccc3C2)ccc1O [Example 12, (6,7-Dihydrothieno[3,2-c]pyridin-5(4H)-yl)(4-hydroxy-3-methoxyphenyl)methanone]	24.3 ± 0.1	26.7 ± 1.0	27.2 ± 2.0	76.0 ± 3.0	67.5 ± 2.5	77.0 ± 12.0	2.3 ± 0.5	3.6 ± 0.1	3.6 ± 0.8				
CCc1occc(=O)c1OC(=O)c1ccc(O)c(OC)c1 [Example 13, 2-Ethyl-4-oxo-4H-pyran-3-yl 4-hydroxy-3-methoxybenzoate]	24.7 ± 1.0	26.6 ± 1.8	27.5 ± 1.7	75.5 ± 1.5	75.0 ± 1.0	71.5 ± 6.5	2.2 ± 0.4	4.0 ± 1.2	4.0 ± 0.3	no abnormal findings were observed	no dead animals were observed	> 1000	1.6 ± 0.4
COc1cc(C(=O)Oc2c(C)occc2=O)ccc1O [Example 14, 2-Methyl-4-oxo-4H-pyran-3-yl 4-hydroxy-3-methoxybenzoate]	27.0 ± 0.4	26.7 ± 0.2	26.3 ± 1.7	74.5 ± 2.5	75.0 ± 3.0	63.5 ± 5.5	4.8 ± 0.2	5.6 ± 0.9	4.2 ± 0.9	no abnormal findings were observed	no dead animals were observed	> 1000	1.6 ± 0.3
COc1ccc(NC(=O)c2ccc(O)c(OC)c2)c([N+](=O)[O-])c1 [Example 15, 4-Hydroxy-3-methoxy-N-(4-methoxy-2-nitrophenyl)benzamide]	26.3 ± 2.3	26.6 ± 1.0	29.3 ± 0.5	70.5 ± 2.5	68.5 ± 3.5	67.0 ± 4.0	2.7 ± 0.1	3.2 ± 0.4	3.1 ± 1.3				
O=C(c1cc(O)ccc1O)N1CCc2sccc2C1 [Example 20, (6,7-Dihydrothieno[3,2-c]pyridin-5(4H)-yl)(2,5-dihydroxyphenyl)methanone]	24.9 ± 1.0	25.3 ± 0.6	25.8 ± 0.9	73.0 ± 2.0	69.0 ± 1.0	66.5 ± 2.5	4.1 ± 0.7	5.2 ± 0.4	3.5 ± 1.2				
O=C(c1cc(O)ccc1O)N1CCC(c2noc3ccc(F)cc23)CC1 [Example 23, (2,5-Dihydroxyphenyl)(4-(5-fluorobenzo[d]isoxazol-3-yl)piperidin-1-yl)methanone]	26.2 ± 0.2	29.5 ± 1.2	26.1 ± 0.2	73.5 ± 1.5	66.0 ± 1.0	65.0 ± 0.0	1.8 ± 0.1	2.2 ± 1.3	3.2 ± 0.5				

From patent publication US10730886B2, “Compound having effect of inhibiting platelet aggregation and salt thereof, and composition for preventing or treating thrombotic diseases, containing same” (SHIN POONG PHARMACEUTICAL CO., LTD., priority 2015, dated 2020)
